Results reported in patent US20260062422A1 (Halda Therapeutics OpCo, Inc., priority 2022, published 2026).

Experiments:
[1] = system: T47D cells; assay: Cellular growth inhibition assay for T47D cells, CellTiter-Glo; type: cell-based, human; details: Homo sapiens, T47D, 72 h, 72 hours treatment, CellTiter-Glo 2.0 cell viability
Summary of the method: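 Growth inhibition as GI50, fitted with four parameters to CellTiter-Glo luminescence after 72 h of compound exposure (0.5% DMSO). Cells were T47D, grown in insulin-supplemented (0.2 units/mL) DMEM with 10% FBS and treated one day post-seeding.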

[2] = system: T-Rex 293 cell line SC3 cells lacking increased expression of androgen receptor protein; assay: Cellular growth inhibition, T-Rex 293 SC3 cells without doxycycline, CellTiter-Glo; type: cell-based; details: 72 h, T-Rex 293 SC3 cells not exposed to doxycycline, CellTiter-Glo 2.0
Summary of the method: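 Growth inhibition was compared in a T-Rex 293 clone with and without doxycycline (10 ng/mL)-driven androgen receptor overexpression. Compounds were applied for 72 h in hormone-depleted serum, and GI50 came from four-parameter curves of CellTiter-Glo signal.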

[3] = system: T-Rex 293 cell line SC3 cells having increased expression of androgen receptor protein due to exposure to doxycycline; assay: Cellular growth inhibition, T-Rex 293 SC3 cells with doxycycline (androgen receptor induced), CellTiter-Glo; type: cell-based; details: 72 h, T-Rex 293 SC3 cells with 10 ng/mL doxycycline (increased androgen receptor expression)
Procedure: The following types of cells were prepared for this experiment: (i) a T-Rex 293 cell line having increased expression of androgen receptor protein due to exposure to doxycycline and (ii) a T-Rex 293 cell line lacking increased expression of androgen receptor protein. Ability of the test compounds to inhibit proliferation of the foregoing cell types was evaluated according to the procedures set forth below.
The doxycycline-inducible androgen receptor protein expressing cell line was established using the following protocol: T-Rex 293 cells were purchased from Invitrogen (Cat #R71007) and transfected using Lipofectamine 2000 with the wild-type androgen receptor protein sequence cloned into the pcDNA4/TO vector. Transfected cells were selected using 400 μg/mL Zeocin (Invitrogen Cat #R25001). Following selection, single clones were raised and maintained in Dulbecco's Modified Eagle Medium (DMEM) supplemented with 10% w/w Tetracycline-free fetal bovine serum (FBS) and 250 μg/mL Zeocin. Clones were analyzed for expression of androgen receptor protein in the presence and absence of 10 ng/mL doxycycline (Sigma Cat #D9891), and a single doxycycline-inducible clone (hereinafter “SC3”) was selected for use in downstream assays.
The SC3 cells were seeded on poly-D-lysine coated, black clear-bottom 384-well plates at 2500/well, in 25 μL Phenol Red Free Dulbecco's Modified Eagle Medium (DMEM) supplemented with 10% w/w charcoal-dextran treated fetal bovine serum (FBS) and 1% w/w pen-strep, with or without 10 ng/mL doxycycline. Pen-Strep is a commercially available mixture of penicillin G and streptomycin, which is used in mammalian cell culture media to prevent bacterial contamination. Phenol Red Free Dulbecco's Modified Eagle Medium (DMEM) supplemented with 10% w/w charcoal-dextran treated fetal bovine serum (FBS) and 1% w/w pen-strep, with or without 10 ng/mL doxycycline is herein referred to as Treatment Medium. Following seeding of cells in the plates, the plates were spun at 300×g for 30 seconds, then equilibrated to room temperature for 30 minutes, and then deposited in a humidified tissue culture incubator maintained at 37° C. with 5% CO2.
At 24 hours after seeding of the cells, dilutions of test compound were prepared in DMSO and dissolved in Treatment Medium, to achieve a final DMSO concentration of 0.5% w/w, thereby providing the Test Compound Solution. A 25 μL aliquot of the Test Compound Solution was added to cells in the well plates. An equal volume of a solution containing DMSO and Treatment Medium was used as a negative control. Following treatment of cells with Test Compound Solution or said equal volume of a solution containing DMSO and Treatment Medium, the plates were spun at 300×g for 30 seconds, and then left in an incubator for 72 hours. At the end of the treatment duration, cell viability was quantified with CellTiter-Glo 2.0 reagent (Promega Cat #G9243). For this purpose, plates were equilibrated to room temperature for 30 minutes, and then 25 μL of CellTiter-Glo 2.0 reagent was added to cells in the plate wells. Plates were then agitated on a shaker for two minutes at 500 rpm and subsequently incubated at room temperature for 10 minutes. Following incubation, the plates were spun at 3000×g for 30 seconds, then sealed with an optical adhesive cover, and luminescence readings were measured with an EnVision Plate Reader. Data was normalized using zero luminescence for baseline. A four-parameter non-linear regression curve fit was applied to dose-response data in GraphPad Prism data analysis software to determine the half-maximal growth inhibitory concentration (GI50) for each test compound.

[4] = system: VCaP cells; assay: Cellular growth inhibition assay for VCaP cells, CellTiter-Glo; type: cell-based, human; details: Homo sapiens, VCaP, 72 h, 72 hours treatment, CellTiter-Glo 2.0
Summary of the method: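 GI50 values come from four-parameter curve fits of luminescence data normalized to a zero baseline. Compound, in medium with 0.5% DMSO, was added one day after plating and left for 72 h before CellTiter-Glo 2.0 addition.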

SMILES | GI50 [1] [µM] | GI50 [4] [µM] | GI50 [2] [µM] | GI50 [3] [µM]
Cc1sc2c(c1C)C(c1ccc(Cl)cc1)=N[C@@H](CC(=O)NCCCOC1CCN(c3ncc(C(=O)N[C@H]4C(C)(C)[C@H](Oc5ccc(C#N)c(Cl)c5)C4(C)C)cn3)CC1)c1nnc(C)n1-2 [Compound I-20] | 0.5 to 1.5 | 0.5 to 1.5 | 0.5 to 1.5 | < 0.5
CC[C@@H]1N=C(c2ccc(N3CC(CC4CN(c5cnc(C(=O)N[C@H]6C(C)(C)[C@H](Oc7ccc(C#N)c(Cl)c7)C6(C)C)cn5)C4)C3)cc2)c2c(sc(C)c2C)-n2c(C)nnc21 [Compound I-607] | < 0.5 | > 3 | > 3 | < 0.5
Cc1sc2c(c1C)C(c1ccc(-c3cc(OC4CCN(c5ncc(C(=O)N[C@H]6C(C)(C)[C@H](Oc7ccc(C#N)c(Cl)c7)C6(C)C)cn5)CC4)ns3)cc1)=N[C@@H](Cc1ncco1)c1nnc(C)n1-2 [Compound I-389] | < 0.5 | 0.5 to 1.5 | > 3 | < 0.5
Cc1sc2c(c1C)C(c1ccc(CC3CC4(CCN(c5ccc(C(=O)N[C@H]6C(C)(C)[C@H](Oc7ccc(C#N)c(Cl)c7)C6(C)C)cn5)CC4)C3)cc1)=N[C@@H](Cc1ncco1)c1nnc(C)n1-2 [Compound I-548] | < 0.5 | 0.5 to 1.5 | < 0.5 | < 0.5
Cc1sc2c(c1C)C(c1ccc(OC3CCN(c4ncc(C(=O)N[C@H]5C(C)(C)[C@H](Oc6ccc(C#N)c(Cl)c6)C5(C)C)cn4)CC3)cc1)=N[C@@H](C)c1nnc(C)n1-2 [Compound I-261] | 0.5 to 1.5 | 0.5 to 1.5 | 1.5 to 3 | < 0.5
CCNC(=O)C[C@@H]1N=C(c2ccc(OCCOCCOC3CCN(c4ncc(C(=O)N[C@H]5C(C)(C)[C@H](Oc6ccc(C#N)c(Cl)c6)C5(C)C)cn4)CC3)c(F)c2)c2c(sc(C)c2C)-n2c(C)nnc21 [Compound I-78] |  | 1.5 to 3 | 1.5 to 3 | < 0.5
CCNC(=O)C[C@@H]1N=C(c2ccc(OCCCCCCOC3CCN(c4ncc(C(=O)N[C@H]5C(C)(C)[C@H](Oc6ccc(C#N)c(Cl)c6)C5(C)C)cn4)CC3)cc2)c2c(sc(C)c2C)-n2c(C)nnc21 [Compound I-63] |  | 1.5 to 3 | 0.5 to 1.5 | < 0.5
CCNC(=O)C[C@@H]1N=C(c2ccc(CCCCCCOC3CCN(c4ncc(C(=O)N[C@H]5C(C)(C)[C@H](Oc6ccc(C#N)c(Cl)c6)C5(C)C)cn4)CC3)cc2)c2c(sc(C)c2C)-n2c(C)nnc21 [Compound I-90] |  | > 3 | > 3 | < 0.5
Cc1sc2c(c1C)C(c1ccc(-c3cn(C4CCN(c5ncc(C(=O)N[C@H]6C(C)(C)[C@H](Oc7ccc(C#N)c(Cl)c7)C6(C)C)cn5)CC4)nn3)cc1)=NC(Cc1ncco1)c1nnc(C)n1-2 (some centres unmarked) [Compound I-483] |  | < 0.5 | < 0.5 | < 0.5
Cc1sc2c(c1C)C(c1ccc(CC3CC(C4CCCN(c5ncc(C(=O)N[C@H]6C(C)(C)[C@H](Oc7ccc(C#N)c(Cl)c7)C6(C)C)cn5)C4)C3)cc1)=N[C@@H](C)c1nnc(C)n1-2 (some centres unmarked) [Compound I-463] |  | < 0.5 | > 3 | < 0.5
Cc1sc2c(c1C)C(c1ccc(-n3cc(C4CCN(c5ncc(C(=O)N[C@H]6C(C)(C)[C@H](Oc7ccc(C#N)c(Cl)c7)C6(C)C)cn5)CC4)nn3)cc1)=N[C@@H](Cc1ncco1)c1nnc(C)n1-2 [Compound I-481] |  | < 0.5 | 0.5 to 1.5 | < 0.5

The next lines start with results.

GI50 [1] [µM] | GI50 [4] [µM] | SMILES | GI50 [2] [µM] | GI50 [3] [µM]
< 0.5 | < 0.5 | Cc1sc2c(c1C)C(c1ccc(CN3CCO[C@@H](CNc4ncc(C(=O)N[C@H]5C(C)(C)[C@H](Oc6ccc(C#N)c(Cl)c6)C5(C)C)cn4)C3)cc1)=N[C@@H](Cc1ncco1)c1nnc(C)n1-2 [Compound I-334] | < 0.5 | < 0.5
> 3 | < 0.5 | Cc1sc2c(c1C)C(c1ccc(CCCOC3CCN(c4ncc(C(=O)N[C@H]5C(C)(C)[C@H](Oc6ccc(C#N)c(Cl)c6)C5(C)C)cn4)CC3)cc1)=N[C@H](Cc1ccncc1)c1nnc(C)n1-2 [Compound I-216] | > 3 | < 0.5
< 0.5 | < 0.5 | Cc1sc2c(c1C)C(c1ccc(O[C@H]3CCC4(C3)CN(c3ncc(C(=O)N[C@H]5C(C)(C)[C@H](Oc6ccc(C#N)c(Cl)c6)C5(C)C)cn3)C4)cc1)=N[C@@H](Cc1ncco1)c1nnc(C)n1-2 [Compound I-180] | < 0.5 | < 0.5
< 0.5 | < 0.5 | Cc1sc2c(c1C)C(c1ccc(CNC(=O)[C@H]3CCCN(c4ncc(C(=O)N[C@H]5C(C)(C)[C@H](Oc6ccc(C#N)c(Cl)c6)C5(C)C)cn4)C3)cc1)=N[C@@H](Cc1ncco1)c1nnc(C)n1-2 [Compound I-264] | < 0.5 | < 0.5
> 3 | < 0.5 | COCC[C@@H]1N=C(c2ccc(OC3CC4(CCN(c5ncc(C(=O)N[C@H]6C(C)(C)[C@H](Oc7ccc(C#N)c(Cl)c7)C6(C)C)cn5)CC4)C3)cc2)c2c(sc(C)c2C)-n2c(C)nnc21 [Compound I-566] | > 3 | < 0.5
< 0.5 | < 0.5 | CCNC(=O)C[C@@H]1N=C(c2ccc(OC3CN(CC4CCN(c5ncc(C(=O)N[C@H]6C(C)(C)[C@H](Oc7ccc(C#N)c(Cl)c7)C6(C)C)cn5)CC4)C3)cc2)c2c(sc(C)c2C)-n2c(C)nnc21 [Compound I-79] | 0.5 to 1.5 | < 0.5
1.5 to 3 | < 0.5 | Cc1sc2c(c1C)C(c1ccc(CC[C@@H]3CCCN(c4ncc(C(=O)N[C@H]5C(C)(C)[C@H](Oc6ccc(C#N)c(Cl)c6)C5(C)C)cn4)C3)cc1)=N[C@@H](Cc1ncco1)c1nnc(C)n1-2 [Compound I-299] | 0.5 to 1.5 | < 0.5
0.5 to 1.5 | < 0.5 | Cc1sc2c(c1C)C(c1ccc(-c3noc(C4CCN(c5ncc(C(=O)N[C@H]6C(C)(C)[C@H](Oc7ccc(C#N)c(Cl)c7)C6(C)C)cn5)CC4)n3)cc1)=N[C@@H](Cc1ncco1)c1nnc(C)n1-2 [Compound I-454] | < 0.5 | < 0.5
< 0.5 | < 0.5 | Cc1sc2c(c1C)C(c1ccc(C[C@@H]3CCCN(c4ncc(C(=O)N[C@H]5C(C)(C)[C@H](Oc6ccc(C#N)c(Cl)c6)C5(C)C)cn4)C3)cc1)=N[C@@H](Cc1ncco1)c1nnc(C)n1-2 [Compound I-296] | 0.5 to 1.5 | < 0.5
 | < 0.5 | Cc1sc2c(c1C)C(c1ccc(Cl)cc1)=N[C@@H](CC(=O)NCCCOCCOC1CCN(c3ncc(C(=O)N[C@H]4C(C)(C)[C@H](Oc5ccc(C#N)c(Cl)c5)C4(C)C)cn3)CC1)c1nnc(C)n1-2 [Compound I-26] | 0.5 to 1.5 | < 0.5
 | < 0.5 | Cc1sc2c(c1C)C(c1ccc(Cl)cc1)=N[C@@H](CC(=O)NCCCOCCCOC1CCN(c3ncc(C(=O)N[C@H]4C(C)(C)[C@H](Oc5ccc(C#N)c(Cl)c5)C4(C)C)cn3)CC1)c1nnc(C)n1-2 [Compound I-29] | 0.5 to 1.5 | < 0.5
